Square brackets hold non-standard residues; d marks the D form. Peptide text beside a SMILES is read from it. * marks the point of attachment. Dolaproine = CO[C@@H]([C@@H]1CCCN1)[C@@H](C)C(=O)O; Dil = CC[C@H](C)[C@H](NC)[C@@H](CC(=O)O)OC; X1 = C[C@@H](N*)[C@@H](O)c1ccccc1; NMeV = CN[C@H](C(=O)O)C(C)C

For data set [1], the system named is HCT116 cells. The data set can be described thus: Cell cycle (propidium iodide, flow cytometry). Type of data set: cell-based, human. The following applies: treated overnight. The procedure:
(§1) Cells were treated with RNAse, stained with propidium iodide (PI) and analysed by FACS using FloJo software.

In data set [2] the test system is OE19 cells. Nature of the data set: Cell cycle (propidium iodide, flow cytometry). Type of data set: cell-based, human. The following applies: treated overnight. The procedure:
as §1
Background: In flow cytometry, cells or beads pass a laser one at a time.

The subject of data set [3] is OE19 cells. Nature of the data set: Alamar Blue cell viability assay. The following applies: OE19 (HER2 cell line); 72-96 h. Type of data set: cell-based, human. (In general: Resazurin is reduced to fluorescent resorufin, in cell work by metabolically active cells.)
Data set [4] relates to CAL-27 cells. The procedure:
(§2) Alamar Blue (resazurin) was added to the cells and allowed to incubate for 2-4 h at 37° C. Plates were analysed using a plate reader with fluorescence measured at 560 nm.

For data set [5], the system named is HCT116 cells. The following applies: HCT116 (HER2−); 72-96 h. The procedure:
as §2

Data set [6] concerns NCI N87 (gastric cancer) cells. The note with it: NCI N87 (HER2 cell line); 72-96 h. The procedure:
as §2

Data set [7] relates to cell lines irrespective of HER2 expression. The data set can be described thus: Alamar Blue cell viability assay, cells based on HER2 expression. Set-up: species or system human. The following applies: 72-96 h.
The next data set has as its system HER2+ cell lines. The data set can be described thus: Neutral comet assay. The following applies: HER2+ cells; 20 nM overnight, 2 Gy. Type of data set: cell-based, human. Here is the method:
(§3) Cells were collected 15 min post IR, suspended in agarose gel and lysed per assay directions (Trevigen). Samples underwent electrophoresis under neutral conditions and were then stained with Sybr Green. Comet tails were counted in multiple fields (>60 cells per sample) and analysed using CometScore (TriTek Corp). Comet tail length was normalized to vehicle-treated, non-irradiated cells.

Another data set deals with HER2− cell lines. Nature of the data set: Neutral comet assay. The note with it: HER2− cells; 20 nM overnight, 2 Gy. Type of data set: cell-based, human. Here is the method:
as §3

In another data set the test system is OE19 cells (HER2+). Nature of the data set: Neutral comet assay. Type of data set: cell-based, human. The procedure: as §3
For a further data set, the system named is OE19 tumour xenografts. Nature of the data set: Immunohistochemistry of tumour xenografts (pHistone H3, cleaved caspase 3). The note with it: OE19 tumours harvested 48 h after injection. Type of data set: in vivo, mice.
Data set [8] has as its system OE19 (HER2+) tumour xenografts. The data set can be described thus: In vivo tumour xenograft experiments (tumour growth). Set-up: species or system mice. The following applies: for Tumour doubling time in days (mean, 95% CI): OE19.
Method: (§4) CAL-27, OE19, NCI N87 and HCT116 tumour xenografts were established and tumour growth was measured with digital calipers. Tumour volume was measured blindly to treatment group and calculated using the formula as 1/2×length×width. Mice were randomized into groups once the average tumour volume reached >100=113. […] For irradiated mice, the tumour-bearing hindlimbs were focally irradiated while the remainder of the mouse was shielded from IR with custom designed lead blocking >95% of the dose as verified by dosimeters placed on the mouse. […] To prevent unnecessary morbidity, mice were killed if tumour length exceeded 15 mm per protocol Nonlinear regression least squares fit was used to calculate tumour volume doubling times. […] To minimize the number of mice used, tumours were grown in the bilateral flanks.
Data set [9] has as its system NCI N87 (HER2+) tumour xenografts. Described as above. The note with it: for Tumour doubling time in days (mean, 95% CI): NCI N87. Set-up: species or system mice.
Method: as §4
The subject of data set [10] is HCT116 (HER2−) tumour xenografts. The description is as above. Also on record: species or system mice. The note with it: for Tumour doubling time in days (mean, 95% CI): HCT116.
Method: as §4
The test system of a further data set is HER2+ tumours. The note with it: combined with IR. Here is the method:
CAL-27, OE19, NCI N87 and HCT116 tumour xenografts were established and tumour growth was measured with digital calipers. […] Mice were assigned to indicated groups in ‘Results’. […] For irradiated mice, the tumour-bearing hindlimbs were focally irradiated while the remainder of the mouse was shielded from IR with custom designed lead blocking >95% of the dose as verified by dosimeters placed on the mouse. […] To minimize the number of mice used, tumours were grown in the bilateral flanks.

Data set [11] relates to CAL-27 cells. The data set can be described thus: Clonogenic assay (SF2). Type of data set: cell-based, human. The following applies: drug overnight then 2 Gy, mertansine 5 nM. Here is the method: Following IR, cells were counted, re-plated at varying cell numbers in drug-free media. […] Surviving fraction at 2 Gy (SF2) was calculated as the fraction of cells surviving 2 Gy compared with non-irradiated cells.

For data set [12], the system named is HCT116 cells. Nature of the data set: Clonogenic assay (SF2). Type of data set: cell-based, human. The following applies: 5 nM mertansine overnight then 2 Gy. Here is the method:
Following IR, cells were counted, re-plated at varying cell numbers in drug-free media. 10-14 days after initial seeding formed colonies were methanol fixed, stained with crystal violet and counted. Surviving fraction at 2 Gy (SF2) was calculated as the fraction of cells surviving 2 Gy compared with non-irradiated cells.

The test system of data set [13] is HER2 expressing tumor cells; tumor cell lines. Nature of the data set: Cell survival by Alamar Blue assay, FIG. 7. Type of data set: cell-based. The following applies: across tumor cell lines. From the text: MMAF potency can be increased and cytotoxicity restricted by antibody conjugation. Cell survival measured by Alamar Blue assay.
The test system of a further data set is HER2+ tumor cells. Nature of the data set: Neutral comet assay following 2 Gy, FIG. 8. Type of data set: cell-based. An excerpt:
Neutral comet assay to measure DNA double strand breaks following 2 Gy of ionizing radiation (IR). IR increased comet tail length by 2.8 fold comapred to non-irradiated cells.

Data set [14] has as its system CAL-27 cells. The data set can be described thus: Phase contrast microscopy. Type of data set: cell-based, human. The following applies: 2 nM overnight. An excerpt:
Cells were fixed at indicated times and imaged for Cy5 fluorescence (red). Nuclei stained with DAPI (blue). Scale bar, 10 gm. Representative images of three independent experiments. […] Nuclei stained with DAPI (blue). Scale bar, 10 gm. Representative images of three independent experiments. […] Representative data of two independent experiments. […] Representative images of three independent experiments. Scale bar, 50 gm.

Data set [15] deals with CAL-27 cells. Nature of the data set: Cell cycle (propidium iodide, flow cytometry). Type of data set: cell-based, human. The note with it: treated overnight. The procedure: as §1
Data set [16] concerns CAL-27 (EGRF+) and OE19 (HER2+) cells. Nature of the data set: Alamar Blue cell viability assay. Type of data set: cell-based, human. The following applies: dose range, 72-96 h.
For data set [17], the system named is CALU3 (EGFR+, HER2+) cells. Nature of the data set: Neutral comet assay. The following applies: 6 Gy, 2 nM overnight, vs vehicle or 20 nM antibody. Type of data set: cell-based, human. The procedure:
as §3

The subject of a further data set is CAL-27 tumour xenografts. Nature of the data set: In vivo tumour xenograft experiments (tumour growth). Set-up: species or system mice. The note with it: non-irradiated tumours; day 0 dose: 0.5 nmol cetuximab or C-MMAE, 2 nmol free MMAE.
Setting [18] is: 0.25 nmol day 0, 2.5 Gy days 1, 2 and 3.
Setting [19] is: 0.25 nmol i.v. day 0 + IR 2.5 Gy days 1, 2 and 3, extrapolated.

Method for CAL-27 tumour xenografts: as §4
Method for OE19 tumour xenografts: Tissue sections were cut from blocks of formalin-fixed paraffin embedded xenografts. Four micron thick tissue sections were stained with antibodies to phosphohistone H3 (pH3, Abcam, catalogue number ab32107) and cleaved caspase-3 (C1C3, Cell Signaling Technology, catalogue number 9661) and used at dilutions of 1:300 and 1:900, respectively. Slides were stained on a Ventana Discovery Ultra (Ventana Medical Systems, Tucson, Ariz., USA). Antigen retrieval was performed using CC1 for 24-40 min at 95° C. The primary antibodies were incubated on the sections for 1 h at 37° C. Primary antibodies were visualized used DAB as a chromagen using the UltraMap system (Ventana Medical systems) followed by hematoxylin as a counterstain. Slides were rinsed, dehydrated through alcohol and xylene and coverslipped.
Immununostained slides were scanned using an Axio Scan.Z1 (Zeiss; Oberkochen, Germany). […] Whole-slide images were imported into Definiens Software for quantitative analysis (Definiens; Munich, Germany). […] For analysis of pH3 (a nuclear stain), the total number of nuclei and the total number of nuclei showing DAB staining (pH3 positive cells) were recorded within each ROI. The percent of positive nuclei was then calculated for each sample. For analysis of C1C3 (a cytoplasmic stain), mean DAB chromagen intensity was measured and calculated within the ROI for each sample.

What is called IC50 is the concentration needed to halve the response being measured. Read a high IC50 as a need for much substance. As for ado-trastuzumab emtansine [T-DM1], the “cell cycle profile (G2/M)” value is given as “resembled vehide-treated cells” with HCT116 cells [1] and “blocked OE19 cells in G2/M” with OE19 cells [2]. For the same compound, the IC50 was under 1 nM in the data set on OE19 cells [3]; over 100 nM in the data set with CAL-27 cells [4] (CAL-27 (HER2−), 72-96 h); over 100 nM with HCT116 cells [5]; under 1 nM in [6]. The “potency in relation to HER2 expression” value in data set [7] is listed as “directly correlated with HER2 expression”. Also, the “radiosensitization (IR induced DNA double-strand breaks)” value in the data set on HER2+ cell lines is listed as “restricted radiosensitization of HER2+cells”; in the data set with HER2− cell lines, “appear inert to irradiated non-HER2 expressing cells”. In the data set on OE19 cells (HER2+) (doses as low as 2 nM T-DM1), the “radiosensitization (comet tail length)” value was “radiosensitized OE19 cells”. Moreover, the “apoptosis (cleaved caspase 3) in tumours” value in the data set with OE19 tumour xenografts is recorded as “increased apoptosis”. Besides, the “cells in G2/M as measured by pS10 Histone H3” value in the data set with OE19 tumour xenografts was “increased the number of cells in radiosensitive G2/M phase”. Moreover, the “tumour regression, combined with IR” value in data set [8] (setting [18]) and in data set [9] (setting [18]) was “significantly prolonged tumour regression” each time. The “Tumour doubling time in days (mean, 95% CI)” value in [8] (setting [19]) is listed as 66 (33+) days; in data set [8] (0.25 nmol i.v. day 0, no IR), 11 (8-17) days; in [9] (setting [19]), 113 (82-179) days; in data set [9] (0.25 nmol i.v. day 0, no IR), 23 (21-25) days; in data set [10] (0.25 nmol i.v. day 0 + IR 2.5 Gy days 1, 2 and 3), 7 (5-12) days; in data set [10] (0.25 nmol i.v. day 0, no IR), 3 (2-5) days. Further, the “tumour control combined with IR vs other regimens” value in data set [8] (by day 22) and in [9] (by day 32) was “superior to all other treatment” each time. Also, the tumour growth result in data set [8] (single dose of 1 nmol, compared with control or trastuzumab by day 14) is reported as “equally efficacious in slowing tumour growth”. The “benefit of adding drug to IR” value in data set [10] (setting [18]) is on record as “showed no benefit of adding T-DM1 to IR”. Further, in the data set with HER2+ tumours, the “long term tumour control (survival curve)” value is recorded as “long term tumour control was observed”.

In the case of `COc1cc2cc(c1Cl)N(C)C(=O)C[C@H](OC(=O)[C@H](C)N(C)C(=O)CCS)[C@]1(C)O[C@H]1[C@H](C)[C@@H]1C[C@@](O)(NC(=O)O1)[C@H](OC)/C=C/C=C(\C)C2` [mertansine], the “cell cycle profile (G2/M)” value in the data set with HCT116 cells [1] was “increased the accumulation of both OE19 and HCT116 cells in the radiosensitive G2/M phase”; in the data set with OE19 cells [2], “increased the accumulation of both OE19 and HCT116 cells in the radiosensitive G2/M phase”. Besides, the IC50 in [7] (across cell lines, irrespective of HER2 expression) worked out at 10 nM. Also, the “surviving fraction following 2 Gy (SF2)” value in the data set on CAL-27 cells [11] and with HCT116 cells [12] was “decreased further” throughout. The “radiosensitization (IR induced DNA double-strand breaks)” value with HER2+ cell lines is “radiosensitized by increasing IR induced DNA double-strand breaks in both HER2+ and HER2− cell lines”; in the data set with HER2− cell lines, “radiosensitized by increasing IR induced DNA double-strand breaks in both HER2+ and HER2− cell lines”.

As to `CC(=O)O[C@H]1C(=O)[C@@]2(C)[C@H]([C@H](OC(=O)c3ccccc3)[C@]3(O)C[C@H](OC(=O)[C@H](O)[C@@H](NC(=O)c4ccccc4)c4ccccc4)C(C)=C1C3(C)C)[C@]1(OC(C)=O)CO[C@@H]1C[C@@H]2O` [paclitaxel], the “cytotoxic potency (comparison)” value with CAL-27 cells [4] (HER2− CAL-27 cells) was “more potent than T-DM1”.

Turning to `CC[C@H](C)[C@@H]([C@@H](CC(=O)N1CCC[C@H]1[C@H](OC)[C@@H](C)C(=O)N[C@@H](Cc1ccccc1)C(=O)O)OC)N(C)C(=O)[C@@H](NC(=O)[C@@H](NC)C(C)C)C(C)C` [MMAF] (H-[NMeV]V[Dil][Dolaproine]F-OH), the “potency compared to MMAE” value in data set [13] was “decreased potency compared to MMAE across tumor cell lines”. For the same compound, in the data set with HER2+ tumor cells, the “IR induced DNA damage (comet tail length)” value was “not”.

For the compound `CC[C@H](C)[C@@H]([C@@H](CC(=O)N1CCC[C@H]1[C@H](OC)[C@@H](C)C(=O)N[C@H](C)[C@@H](O)c1ccccc1)OC)N(C)C(=O)[C@@H](NC(=O)[C@@H](NC)C(C)C)C(C)C` [MMAE, monomethyl auristatin E] (H-[NMeV]V[Dil][Dolaproine]-X1), the cell morphology result with CAL-27 cells [14] was “cells rounding up, indicative of G2/M”. The “cell cycle profile (G2/M)” value in the data set with CAL-27 cells [15] and in the data set with OE19 cells [2] was “cells accumulating in G2/M” in each case. In data set [16], the “cytotoxicity (cell viability)” value is listed as “more potent compared with standard cytotoxic chemotherapies”. Besides, in the data set with CAL-27 cells [11], the “surviving fraction following 2 Gy (SF2)” value is reported as “decreased”. Moreover, the “comet tail length after irradiation” value in data set [17] is “increased comet tail length to a similar degree”; in the data set on OE19 cells (HER2+) (6 Gy, 2 nM overnight), “further increased comet tail length”. Also, the tumour growth entry with CAL-27 tumour xenografts is “delayed tumour growth”. Besides, in the data set with HER2+ tumor cells, the “IR induced DNA damage (comet tail length)” value is “further increased IR induced DNA damage”.
